The test system of data set [1] is G48a GBM cells, which over-express IL-13Rα2. The experiment in a line: Localization of biotin-conjugated proteins in G48a GBM cells. Type of data set: cell-based. The protocol:
(§1) 12,500 U-251 MG GBM cells were plated on coverslips per well in a 24-well plate. […] After the incubations, the cells were fixed with 4% paraformaldehyde (Ted Pella, Redding, Calif.) for 15 mins at 37° C. and washed with PBS 4× times. The cells were then permeabilized with 0.1% Triton-X-100/0.2% BSA-PBS for 10 min at RT. After permeabilization, the cells were washed 3 times with 1×PBS. After washings, Tyramide signal amplification kit (Invitrogen, Carlsbad, Calif.) using Alexa fluor 488 dyes and HR.P-streptavidin was carried out as per manufacturer's instructions. Topro-3 iodide (Invitrogen, Carlsbad, Calif.) was added at a concentration of 1:1000 dilution of the 1 mM stock to stain the cell nuclei. After the tyramide staining, wells were washed and mounted with gel mount (Biomeda, Foster City, Calif.) and observed with LSM 510 Zeiss Confocal Microscope (Cellular Imaging Core, Comprehensive Cancer Center, Wake Forest University) and the images processed using Zeiss LSM Image Browser (version 4.2).
We repeated the above experiments in another GBM cell line, G48a (13), which over-expresses IL-13Rα2. We obtained similar results as with the U-251 MG cells.

Data set [2] concerns the target T1, IL-13Rα2 receptor on GBM cells (U-251 MG) (Homo sapiens, UniProt Q14627).
T1 construct: endogenous in cells; host or cells: U-251 MG human glioblastoma cells (ATCC)
T1 sequence (Q14627 27-380): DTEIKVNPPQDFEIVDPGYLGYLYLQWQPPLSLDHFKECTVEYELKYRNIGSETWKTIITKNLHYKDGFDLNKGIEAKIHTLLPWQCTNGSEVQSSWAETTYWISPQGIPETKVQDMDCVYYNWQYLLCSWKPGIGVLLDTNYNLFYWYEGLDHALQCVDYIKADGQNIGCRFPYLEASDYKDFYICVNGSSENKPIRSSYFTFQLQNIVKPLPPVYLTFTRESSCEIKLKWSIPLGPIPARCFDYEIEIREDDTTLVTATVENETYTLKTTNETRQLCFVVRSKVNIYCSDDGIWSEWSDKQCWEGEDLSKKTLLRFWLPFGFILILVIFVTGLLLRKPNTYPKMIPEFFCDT
Briefly: Colorimetric MTS/PMS cell viability assay: neutralization of IL-13.E13K-PE38QQR cytotoxicity (competition for receptor). Type of data set: cell-based. How it is done: 1× 10^3 U-251 MG cells were plated per well in quadruplicates for each concentration to be tested. IL-13.E13K-PE38QQR is an IL-13Rα2 based cytotoxin against GBM (24). After 24 hours incubation at […] for the cells to attach, a fixed concentration (i.e. 1 μM) of the IL13.E13K-D2-NLS and other purified proteins were added and incubated at 37° C. for 1 hr. After 1 hr. incubation, increasing concentrations of the IL-13.E13K-PE38QQR ranging from 0.1 to 100 ng/ml was added and the plate was incubated for 48 hr. Cells treated with cyclohexamide and just the cytotoxins were used as controls. After 48 hr., cell viability was measured using the MTS [3-(4,5-dimethylthiazol-2-yl)-543-carboxymethoxyphenyl)-2-(4-sulfophenyl)-2H-tetrazolium]/PMS [phenazine methosulfate] dye (Promega, Madison, Wis.) as per the manufacturer's instructions. The absorbance from the assay was measured at 490 nm using the plate reader Spectra max 340 PC (Molecular Devices, Sunnyvale, Calif.) and data was plotted as percentage of control versus concentration of the toxin used.
To this end, we carried out a cell-viability assay in which these recombinant proteins bound to the IL-13Rα2 receptor and protected against cytotoxic action of IL-13.E13K-PE38QQR. […]

For data set [3], the system named is IL-13Rα2 positive U-251 MG cells. Briefly: Localization of biotin-conjugated proteins, tyramide signal amplification, confocal microscopy. It is filed as cell-based, Human. How it is done: Biotin-XX microscale protein labeling kit (Invitrogen, Carlsbad, Calif.) was used to label the proteins as per the manufacturer's instructions. A different molar ratio of 12, 8 or 4 biotin-dye to the proteins was used. The biotin-labeled proteins were run on a gel and a western blot carried out using streptavidin-HR.P (Pierce, Rockford, Ill.) to detect for biotin-labeled proteins. The number of Biotin molecules attached to the proteins was determined by the Biofluoreporter assay kit (Invitrogen) as per the manufacturer's guidelines.
as §1, with “After the tyramide staining, wells were washed and mounted with gel mount (Biomeda, Foster City, Calif.) and observed with LSM 510 Zeiss Confocal Microscope (Cellular Imaging Core, Comprehensive Cancer Center, Wake Forest University) and the images processed using Zeiss LSM Image Browser (version 4.2).” left out

The subject of data set [4] is LN229 cells, very low expressors of IL-13Rα2. The experiment in a line: Localization of biotin-labeled proteins in LN229 cells. The note with it: 24 hr. Type of data set: cell-based, Human. How it is done: 12,500 U-251 MG GBM cells were plated on coverslips per well in a 24-well plate. After 24 hr., 1 μM/well of biotin-labeled proteins was added onto the U-251 MG cells for 15 min, 4, 8 and 24 hr. After the incubations, the cells were fixed with 4% paraformaldehyde (Ted Pella, Redding, Calif.) for 15 mins at 37° C. and washed with PBS 4× times. The cells were then permeabilized with 0.1% Triton-X-100/0.2% BSA-PBS for 10 min at RT. After permeabilization, the cells were washed 3 times with 1×PBS. After washings, Tyramide signal amplification kit (Invitrogen, Carlsbad, Calif.) using Alexa fluor 488 dyes and HR.P-streptavidin was carried out as per manufacturer's instructions. Topro-3 iodide (Invitrogen, Carlsbad, Calif.) was added at a concentration of 1:1000 dilution of the 1 mM stock to stain the cell nuclei. After the tyramide staining, wells were washed and mounted with gel mount (Biomeda, Foster City, Calif.) and observed with LSM 510 Zeiss Confocal Microscope (Cellular Imaging Core, Comprehensive Cancer Center, Wake Forest University) and the images processed using Zeiss LSM Image Browser (version 4.2).
We carried out identical experiments with biotin-labeled IL-13.E13K-D2-NLS in LN229 cells, very low expressors of IL-13Rα2.

The source of these data is US11136367B2, “Multi-level specific targeting of cancer cells” (Wake Forest University Health Sciences, priority 2010, dated 2021).

Take IL-13.E13K: the nuclear localization result in data set [1] (any of the time-points) is “not found to have any nuclear localization”. Besides, the subcellular localization entry is listed as “cytosolic/perinuclear localization” in data set [1] (biotin label, 4, 8 and 24 hr.); “cell membrane binding” in data set [1] (biotin label, 5 min); “demonstrate the results observed at 24 hr” in data set [3] (biotin label, 8, 4 hr and 5 min, data not shown); “accumulated mainly in the peri-nuclear region” in data set [3] (biotin label, 24 hr.). Further, the “protection against cytotoxic action of IL-13.E13K-PE38QQR (competition for IL-13Rα2)” value in data set [2] (U-251 MG cells, 1 μM protein 1 hr before 0.1 to 100 ng/ml cytotoxin, 48 hr) is on record as “blocked the action of the cytotoxin”. In addition, in data set [2] (biotin-conjugated proteins), the “binding of biotin-conjugated proteins to IL-13Rα2 on GBM cells” value is “bind to the IL-13Rα2”. Besides, in data set [4], the “cytosolic or perinuclear localization” value is recorded as “no cytosolic or perinuclear localization”.
